This note sets out measurements from publication PMC8840742 (Molecules, 2022).

Data set [1] concerns SARS-CoV-2. The note with it: for SI (CC50/EC50) / anti-SARS-CoV-2 activity in words: VeroE6 cells; for anti-SARS-CoV-2 activity in words: SAR discussion; for potency loss / fold less active relative to compound 8 (SARS-CoV-2): relative to compound 8, VeroE6.
Another data set has as its system VeroE6 cells. The experiment in a line: Cytotoxicity in mock-infected VeroE6 cells (MTS assay). To be noted: read-out: MTS CC50; mock-infected VeroE6 cells, MTS assay. In general terms: Formazan colour is commonly taken as a measure of viable cells.
Another data set in a line: in vitro. The note with it: African green monkey.
For data set [2], the system named is SARS-CoV-2. The data set is described as follows: microbe, parasite or virus in culture. The note with it: Severe acute respiratory syndrome coronavirus 2, 96 h, read-out: SARS-CoV-2 EC50.
Data set [3] can be described thus: Cytotoxicity in mock-infected VeroE6 cells (MTS assay). The note with it: African green monkey.

Like-named read-outs stand apart in the source and are kept apart here.

The EC50 is the concentration giving half of the maximal effect. Take “5-[2-(1-Cyclopentylpyrrolidin-3-yl)oxyphenyl]-3-(4-pyridyl)-1,2,4-thiadiazole [Compound 49]”: the “SI (CC50/EC50)” value in the data set with SARS-CoV-2 [1] is 2.6. Further, the EC50 in the data set with SARS-CoV-2 [1] (read-out: SARS-CoV-2 EC50) stood at 5.4 ± 2.1 µM. Also, the CC50 in the data set on VeroE6 cells was 14 ± 1 µM.

Regarding `c1ccc(CCN2CC[C@@H](Oc3ccccc3-c3nc(-c4ccncc4)no3)C2)cc1` [Compound 1a, 5-[2-[(3R)-1-(2-Phenylethyl)pyrrolidin-3-yl]oxyphenyl]-3-(4-pyridyl)-1,2,4-oxadiazole], the “SI (CC50/EC50)” value in the data set with SARS-CoV-2 [1] turned out to be 8.1. Besides, the CC50 in the data set “in vitro” turned out to be 29 ± 24 µM. Besides, the EC50 in the data set on SARS-CoV-2 [2] amounted to 3.6 ± 1.8 µM.

In the case of `c1ccc(CCN2CC[C@H](Oc3ccccc3-c3nc(-c4ccncc4)no3)C2)cc1` [Compound 1b, 5-[2-[(3S)-1-(2-Phenylethyl)pyrrolidin-3-yl]oxyphenyl]-3-(4-pyridyl)-1,2,4-oxadiazole], in the data set with SARS-CoV-2 [1], the “SI (CC50/EC50)” value was determined as 12.8. The CC50 in the data set “in vitro” turned out to be 18 ± 11 µM. The EC50 in the data set with SARS-CoV-2 [2] stood at 1.4 ± 0.1 µM.

Take `c1ccc(-c2nc(-c3ccncc3)no2)c(OC2CCN(C3CCCC3)C2)c1` (stereo not shown) [Compound 8, 5-[2-(1-Cyclopentylpyrrolidin-3-yl)oxyphenyl]-3-(4-pyridyl)-1,2,4-oxadiazole]: in the data set on SARS-CoV-2 [1], the “SI (CC50/EC50)” value was determined as 7.6. For the same compound, the CC50 in the data set “in vitro” turned out to be 41 ± 25 µM. Moreover, the EC50 in the data set with SARS-CoV-2 [2] is 5.4 ± 3.5 µM.

Regarding `c1ccc(-c2nc(-c3ccncc3)no2)c(OC2CCN(CC3CCCC3)C2)c1` (stereo not shown) [Compound 9, 5-[2-[1-(Cyclopentylmethyl)pyrrolidin-3-yl]oxyphenyl]-3-(4-pyridyl)-1,2,4-oxadiazole], in the data set on SARS-CoV-2 [1], the “SI (CC50/EC50)” value was 15. Also, the CC50 in “in vitro” worked out at 24 ± 8 µM. Moreover, the EC50 in the data set with SARS-CoV-2 [2] was 1.6 ± 0.8 µM.

As for `c1ccc(-c2nc(-c3ccncc3)no2)c(OCC2CCN(C3CCCC3)C2)c1` (stereo not shown) [Compound 10, 5-[2-[(1-Cyclopentylpyrrolidin-3-yl)methoxy]phenyl]-3-(4-pyridyl)-1,2,4-oxadiazole], the “SI (CC50/EC50)” value with SARS-CoV-2 [1] turned out to be 15.9. In the data set “in vitro”, this compound came in with a CC50 of 27 ± 6 µM. The EC50 in the data set with SARS-CoV-2 [2] came to 1.7 ± 0.3 µM.

For `c1ccc(-c2nc(-c3ccncc3)no2)c(OCC2CCN(CC3CCCC3)C2)c1` (stereo not shown) [Compound 11, 5-[2-[[1-(Cyclopentylmethyl)pyrrolidin-3-yl]methoxy]phenyl]-3-(4-pyridyl)-1,2,4-oxadiazole], in the data set with SARS-CoV-2 [1] (relative to compound 10, VeroE6), the “fold less active than compound 10 (SARS-CoV-2)” value was found to be 20 fold. The compound further showed a CC50 in the data set “in vitro” of over 50 µM. Besides, in the data set on SARS-CoV-2 [2], the EC50 stood at 40 ± 14 µM.

As to `c1ccc(-c2nc(-c3ccncc3)no2)c(OC2CCN(C3CCCC3)CC2)c1` [Compound 12, 5-[2-[(1-Cyclopentyl-4-piperidyl)oxy]phenyl]-3-(4-pyridyl)-1,2,4-oxadiazole], the “SI (CC50/EC50)” value in the data set with SARS-CoV-2 [1] was found to be 27.1. The compound also had a CC50 in the data set “in vitro” of 46 ± 18 µM. Besides, the EC50 in the data set on SARS-CoV-2 [2] came to 1.7 ± 0.5 µM.

In the case of `c1ccc(-c2nc(-c3ccncc3)no2)c(OCCNC2CCCC2)c1` [Compound 13, N-[2-[2-[3-(4-Pyridyl)-1,2,4-oxadiazol-5-yl]phenoxy]ethyl]cyclopentanamine], the “SI (CC50/EC50)” value with SARS-CoV-2 [1] was 5.5. Besides, the CC50 in “in vitro” worked out at 46 ± 13 µM. In addition, the concentration for a half-maximal effect (EC50) with SARS-CoV-2 [2] was found to be 8.4 ± 2.5 µM.

As to `CN(CCOc1ccccc1-c1nc(-c2ccncc2)no1)C1CCCC1` [Compound 14, N-Methyl-N-[2-[2-[3-(4-pyridyl)-1,2,4-oxadiazol-5-yl]phenoxy]ethyl]cyclopentanamine], the “SI (CC50/EC50)” value in the data set on SARS-CoV-2 [1] is listed as 4.4. The CC50 in “in vitro” was determined as 37 ± 11 µM. Also, the EC50 in the data set on SARS-CoV-2 [2] is 8.5 ± 4 µM.

With `c1cncc(-c2noc(-c3ccccc3OC3CCN(C4CCCC4)C3)n2)c1` (stereo not shown) [Compound 23, 5-[2-(1-Cyclopentylpyrrolidin-3-yl)oxyphenyl]-3-(3-pyridyl)-1,2,4-oxadiazole], in the data set on SARS-CoV-2 [1], the “SI (CC50/EC50)” value is given as over 6 and the “anti-SARS-CoV-2 activity in words” value is “equipotent to 8”. Moreover, the CC50 in the data set “in vitro” was over 50 µM. Further, the concentration giving a half-maximal response (EC50) in the data set on SARS-CoV-2 [2] worked out at 8.4 ± 5.7 µM.

In the case of `c1ccc(-c2nc(-c3cncnc3)no2)c(OC2CCN(C3CCCC3)C2)c1` (stereo not shown) [Compound 24, 5-[2-(1-Cyclopentylpyrrolidin-3-yl)oxyphenyl]-3-pyrimidin-5-yl-1,2,4-oxadiazole], in the data set on SARS-CoV-2 [1], the “SI (CC50/EC50)” value is given as over 3.3 and the “potency loss / fold less active relative to compound 8 (SARS-CoV-2)” value is 3 fold. In addition, the CC50 in the data set “in vitro” was over 50 µM. For the same compound, the EC50 in the data set with SARS-CoV-2 [2] is 15 ± 2 µM.

On to `c1ccc(-c2nc(-c3ccnnc3)no2)c(OC2CCN(C3CCCC3)C2)c1` (stereo not shown) [Compound 25, 5-[2-(1-Cyclopentylpyrrolidin-3-yl)oxyphenyl]-3-pyridazin-4-yl-1,2,4-oxadiazole], for which the “potency loss / fold less active relative to compound 8 (SARS-CoV-2)” value in the data set on SARS-CoV-2 [1] is recorded as “more than 10 fold”. Moreover, in “in vitro”, the CC50 was over 50 µM. For the same compound, in the data set on SARS-CoV-2 [2], the EC50 is over 50 µM.

Consider `c1ccc(-c2noc(-c3ccccc3OC3CCN(C4CCCC4)C3)n2)cc1` (stereo not shown) [Compound 26, 5-[2-(1-Cyclopentylpyrrolidin-3-yl)oxyphenyl]-3-phenyl-1,2,4-oxadiazole], for which, in the data set on SARS-CoV-2 [1], the “SI (CC50/EC50)” value was under 1 and the “anti-SARS-CoV-2 activity in words” value is given as “showed only cytotoxicity”. For the same compound, the CC50 in the data set “in vitro” was 9 ± 2.5 µM. In addition, the concentration for a half-maximal effect (EC50) in the data set on SARS-CoV-2 [2] was over 50 µM.

As for `COc1ccc(-c2noc(-c3ccccc3OC3CCN(C4CCCC4)C3)n2)cn1` (stereo not shown) [Compound 27, 5-[2-(1-Cyclopentylpyrrolidin-3-yl)oxyphenyl]-3-(6-methoxy-3-pyridyl)-1,2,4-oxadiazole], in the data set with SARS-CoV-2 [1], the “SI (CC50/EC50)” value turned out to be 4.9. The CC50 in “in vitro” turned out to be 20 ± 5.5 µM. Further, in the data set with SARS-CoV-2 [2], the EC50 was 4.1 ± 2.2 µM.

`FC(F)(F)c1cncc(-c2noc(-c3ccccc3OC3CCN(C4CCCC4)C3)n2)c1` (stereo not shown) [Compound 28, 5-[2-(1-Cyclopentylpyrrolidin-3-yl)oxyphenyl]-3-[5-(trifluoromethyl)-3-pyridyl]-1,2,4-oxadiazole]: the “SI (CC50/EC50)” value in the data set on SARS-CoV-2 [1] is 4.8. In addition, in “in vitro”, the CC50 came out at 10 ± 1 µM. The EC50 in the data set on SARS-CoV-2 [2] is 2.1 ± 0.1 µM.

On to `FC(F)(F)c1ccncc1-c1noc(-c2ccccc2OC2CCN(C3CCCC3)C2)n1` (stereo not shown) [Compound 29, 5-[2-(1-Cyclopentylpyrrolidin-3-yl)oxyphenyl]-3-[4-(trifluoromethyl)-3-pyridyl]-1,2,4-oxadiazole], for which, in the data set on SARS-CoV-2 [1], the “SI (CC50/EC50)” value came to 8.4. In “in vitro”, this compound gave a CC50 of 26 ± 7 µM. Also, the EC50 with SARS-CoV-2 [2] worked out at 3.1 ± 1.3 µM.

In the case of `Cc1ccncc1-c1noc(-c2ccccc2OC2CCN(C3CCCC3)C2)n1` (stereo not shown) [Compound 30, 5-[2-(1-Cyclopentylpyrrolidin-3-yl)oxyphenyl]-3-(4-methyl-3-pyridyl)-1,2,4-oxadiazole], in the data set with SARS-CoV-2 [1], the “SI (CC50/EC50)” value was determined as 33.6. In addition, in “in vitro”, the CC50 amounted to 47 ± 1 µM. Besides, the EC50 in the data set with SARS-CoV-2 [2] is 1.4 ± 1 µM.

`Cc1cnccc1-c1noc(-c2ccccc2OC2CCN(C3CCCC3)C2)n1` (stereo not shown) [Compound 31, 5-[2-(1-Cyclopentylpyrrolidin-3-yl)oxyphenyl]-3-(3-methyl-4-pyridyl)-1,2,4-oxadiazole]: the CC50 in “in vitro” turned out to be 18 ± 9 µM. Further, the EC50 in the data set on SARS-CoV-2 [2] is 1.8 ± 0.3 µM.

As to `c1ccc(-c2noc(-c3ccncc3)n2)c(OC2CCN(C3CCCC3)C2)c1` (stereo not shown) [Compound 35, 3-[2-(1-Cyclopentylpyrrolidin-3-yl)oxyphenyl]-5-(4-pyridyl)-1,2,4-oxadiazole], the “SI (CC50/EC50)” value in the data set on SARS-CoV-2 [1] stood at 4.8. The CC50 in “in vitro” came to 30 ± 12 µM. For the same compound, the EC50 in the data set on SARS-CoV-2 [2] was found to be 6.2 ± 2.7 µM.

In the case of `c1ccc(-c2nnc(-c3ccncc3)o2)c(OC2CCN(C3CCCC3)C2)c1` (stereo not shown) [Compound 38, 2-[2-(1-Cyclopentylpyrrolidin-3-yl)oxyphenyl]-5-(4-pyridyl)-1,3,4-oxadiazole], in the data set with SARS-CoV-2 [1], the “SI (CC50/EC50)” value was found to be 3.1 and the “potency loss / fold less active relative to compound 8 (SARS-CoV-2)” value was found to be 3 fold. This compound also returned a CC50 in the data set “in vitro” of 47 ± 15 µM. Besides, the EC50 in the data set on SARS-CoV-2 [2] was found to be 15 ± 3 µM.

As to `c1ccc(-c2nc(-c3ccncc3)ns2)c(OC2CCN(C3CCCC3)C2)c1` (stereo not shown) [Compound 46, 5-[2-(1-Cyclopentylpyrrolidin-3-yl)oxyphenyl]-3-(4-pyridyl)-1,2,4-thiadiazole], in the data set on SARS-CoV-2 [1], the “SI (CC50/EC50)” value turned out to be 6.5. In addition, in the data set on SARS-CoV-2 [2], the EC50 was 2.3 ± 0.4 µM. The CC50 in data set [3] was 15 ± 1 µM.

On to `N#C[C@@]1(c2ccc3c(N)ncnn23)O[C@H](CO)[C@@H](O)[C@H]1O` [GS-441524, reference compound], for which the concentration for a half-maximal effect (EC50) in the data set on SARS-CoV-2 [2] turned out to be 0.82 µM.
